Measured values: patent publication US20100256145A1, “USE OF KCNQ POTASSIUM CHANNEL OPENERS FOR REDUCING SYMPTOMS OF OR TREATING DISORDERS OR CONDITIONS WHEREIN THE DOPAMINERGIC SYSTEM IS DISRUPTED” (H. LUNDBECK A/S, priority 2007, published 2010)
Marks after values point to notes of the source that are not given here.

Legend:
[1] = test system: extracellular DA levels in the nucleus accumbens; assay: Microdialysis: amphetamine-evoked DA levels in the nucleus accumbens of freely moving rats; type: in vivo, rat; conditions: for Normalised DA level in the nucleus accumbens: compound 5 mg/kg s.c., D-amphetamine 0.5 mg/kg s.c. 30 min later; for Effect on the basal extracellular DA level in the nucleus accumbens: without amphetamine, data not shown
Description: Subjects. Male Sprague-Dawley rats (Charles River), initially weighing 275-300 g, are used.
Surgery. Animals are anaesthetized with hypnorm/dormicum (2 ml/kg s.c.) and intracerebral guide cannulas (CMA/12) are stereotaxically implanted, positioning the dialysis probe tip in the nucleus accumbens (co-ordinates: 1.7 mm anterior to bregma, −1.2 mm lateral to bregma, 8.0 mm ventral to the dura). Anchor screws and acrylic cement is applied for fixation of the guide cannula. The body temperature of the animals is maintained at 37° C. by means of a rectal probe and a heating plate. The rats are allowed to recover from surgery for 2 days, housed singly in cages.
Experimental procedure. On the day of the experiment, a microdialysis probe (CMA/12, 0.5 mm diameter, 2 mm length) is inserted through the guide cannula of the conscious animal. The probes are connected to a microinjection pump via a dual channel swivel which allowed the animals unrestricted movements. Perfusion of the microdialysis probe with filtered Ringer solution (145 mM NaCl, 3 mM KCl, 1 mM MgCl2, 1.2 mM CaCl2) is maintained for the duration of the experiment at a constant flow rate of 1 μL/min. After 180 min of stabilisation, the experiments are initiated. Dialysates are collected every 20 min. After the experiments the rats are sacrificed by decapitation, their brains removed, frozen and sliced for probe placement verification.
Administration of compounds. […] Thirty minutes later, D-amphetamine sulphate (0.5 mg/kg s.c.) is administered.
Analysis of dialysate. The concentration of DA in the dialysates is assessed by means of HPLC with electrochemical detection. The dialysate constituents are separated by reverse phase liquid chromatography (ODS 150×3 mm, […]). Mobile phase consists of 90 mM NaH2PO4, 50 mM sodium citrate, 367 mg/l sodium 1-octanesulfonic acid, 50 μM EDTA and 8% acetonitrile (pH 4.0) at a flow rate of 0.5 ml/min. Electrochemical detection of DA is accomplished using a coulometric detector; potential set at E1=−75 mV and E2=300 mV (guard cell at 350 mV) (Coulochem II, ESA). The dialysate levels of DA in the three dialyse samples preceding the administration of compound are averaged and used as baseline level of DA (100%)
Statistical analysis. The dialysate levels of DA in the three dialyse samples preceding the administration of compound are averaged and used as baseline level of DA (100%). Data are analysed using repeated measure analyses of variance followed by post hoc tests (Tukey test), when appropriate. *P<0.05 were considered significant.

[2] = test system: conditioned avoidance response; assay: Conditioned avoidance response in rats; type: in vivo, rat; conditions: Rattus norvegicus, sc, rats, read-out: % inhibition of avoidance (Std. dev.) Relative to baseline; for inhibition at 2.5 mg/kg: 2.5 mg/kg s.c. 30 min before the test; for inhibition at 5 mg/kg: 5 mg/kg s.c. 30 min before the test
Description: Subjects. Male Wistar rats (Taconic, Denmark) weighing 150 g at the beginning of the study are used. The rats are housed in pairs and maintained on a 12 h light/dark cycle (lights on 06:00). The animals are fed once daily (approx. 6 pellets/rat) in order to keep the rats at 80% of their free-feeding weight. Water is available ad libitum. Temperature (21±1° C.) and relative humidity (55±5%) are automatically controlled.
Experimental procedure. Conditioned avoidance testing is conducted using four automated shuttle-boxes (ENV-010M, MED-Associates) each placed in a sound-attenuated chamber. Each box is divided into two compartments by a partition with an opening. The position of the animal and crossings from one compartment to the other are detected by two photocells placed on either side of the dividing wall. Upon presentation of the conditioned stimuli (CS), tone and light, the animals have 10s to cross to the other compartment of the shuttle-box in order to turn the CS off (end the trial) and avoid the appearance of the unconditioned stimulus (UCS). If the rat remains in the same compartment for more than 10s, the UCS is presented as 0.5 mA scrambled foot-shocks until escape is performed or 10s in maximal duration. The following behavioural variables are evaluated: avoidance (response to CS within 10s); escape (reponse to CS+UCS); escape failures (failure to respond); intertrial crosses and locomotor activity. The rats are habituated to the shuttle-box 3 min before each test session. During training each test session consists of 30 trials with intertrial intervals varying randomly between 20s and 30s. Training is carried out until the rats display an avoidance of 80% or more, on 3 consecutive days. A test is preceded by a pre-test the day before giving rise to a baseline value for each animal, thus the animals serve as their own control. Seven to eight rats are used at each dose level. A parallel control group receiving the vehicle of the test compound is also included.
Administration of compound. […] All compounds are dissolved in a vehicle of 10% 2-hydroxy-propyl-beta-cyclodextrin (isotonic with glucose, pH 5-7).
Statistical analyses. The effects of compounds on avoidance and escape failure behaviours are statistically evaluated by means of two-way repeated measures ANOVA followed by post hoc comparisons (Student-Newman-Keuls Method) when appropriate. P-levels <0.05 are considered statistically significant.

[3] = test system: immobility in the mouse forced swim test; assay: Mouse forced swim test; type: in vivo; conditions: mice, time immobile during last 3 min of 6 min swim, vehicle = 100
Description: Subjects. Male NMRI mice (Charles River) weighing 23-25 g are used. […] 8 mice are used pr experimental group.
Experimental procedure. The mice are placed in 2000 ml beaker containing 1200 ml of tempered water (25° C.) and left to swim for 6 min. The performance of the mice is videorecorded, digitalized and analysed by means of a digital analysis system (Bioobserve). The time spent immobile for the last 3 min. of the test session is quantified for each mouse.
Analyses. […] A post-hoc test (Student-Newman-Keuls) is employed when appropriate. P-levels <0.05 were considered significant.

[4] = test system: dopaminergic neurons in the ventral tegmental area; assay: Spontaneous DA cell firing in the VTA of anaesthetised rats (extracellular single-cell recordings); conditions: mean ± SEM
Description: Subjects. Male Wistar rats (Harlan, The Netherlands) weighing 270-340 g are used. The animals are housed under a 12-hr light/dark cycle under controlled conditions for regular in-door temperature (21±2° C.) and humidity (55±5%) with food and tap water available ad libitum.
Administration of compound. […] These i.v. doses match the s.c. dose range of 0-10 mg/kg.
Statistical analysis. Drug effects are assessed by statistical comparison of the mean firing rate calculated from the 2-3 min period immediately before the first drug administration (baseline) to the mean firing rate calculated from at least 60 s at the maximal drug effect. Data are analysed statistically by a one-way analysis of variance (ANOVA) followed by Student-Newman-Keuls post hoc test. A p-value less than 0.05 is considered significant.

[5] = test system: d-amphetamine induced hyperactivity in rats; assay: Amphetamine-induced hyperactivity in the rat (amphetamine antagonism); type: in vivo; conditions: read-out: Amphetamine antagonism ED50 (mg/kg) ± std. dev.
From the text: Subjects. Male Wistar rats (Taconic, Denmark) weighing 170-240 g are used. […] Eight rats are used at each dose level and in the parallel control group receiving the vehicle to the test compound plus d-amphetamine and the group receiving vehicle injections only.

baseline motility = assay: Baseline motility in mice (vehicle-pretreated, vehicle-challenged); type: in vivo, mouse; conditions: s.c., Std. Dev. in brackets
Description: Subjects. Male NMRI mice (Charles River) weighing approx. 35 g are used. […] 12 mice are used pr experimental group.
Experimental procedure. All mice are pre-treated once daily for five days with either d-amphetamine sulphate (2.5 mg/kg s.c.) or saline (10 ml/kg). For the 17 days between the last day of pre-treatment and the test day, the animals are kept in their homecage receiving the care as described above. The experiment is performed under normal light conditions in an undisturbed room. The mice are treated with test substance or vehicle and placed individually in the test cages for 30 min. The mice are then challenged with D-amphetamine sulphate (1.25 mg/kg s.c.) or saline (5 ml/kg) and replaced in the test-cage and data acquisition is begun. 5×8 infrared light sources and photocells interspaced by 4 cm monitor the locomotor activity. The light beams cross the cage 1.8 cm above the bottom of the cage.
Administration of compounds.
Data analyses. […] Similarly an ED50 for inhibiting baseline motility is calculated by expressed the motility response in vehicle-pretreated, vehicle-challenged, drug-treated animals relative to the baseline motility response. A therapeutic index value is subsequently calculated by dividing the first ED50 by the second.

[6] = 2.5 mg/kg s.c. 30 min before test
[7] = 5.0 mg/kg s.c. 30 min before test

Structure (SMILES) | Normalised DA level in the nucleus accumbens ([1]; Time 0 min (baseline sample)) | Normalised DA level in the nucleus accumbens ([1]; Time 20 min) | Normalised DA level in the nucleus accumbens ([1]; Time 40 min) | Normalised DA level in the nucleus accumbens ([1]; Time 60 min) | Normalised DA level in the nucleus accumbens ([1]; Time 80 min) | Normalised DA level in the nucleus accumbens ([1]; Time 100 min) | Normalised DA level in the nucleus accumbens ([1]; Time 120 min) | Normalised DA level in the nucleus accumbens ([1]; Time 140 min) | Normalised DA level in the nucleus accumbens ([1]; Time −20 min (baseline sample)) | Normalised DA level in the nucleus accumbens ([1]; Time −40 min (baseline sample)) | Effect on the basal extracellular DA level in the nucleus accumbens [1] | inhibition at 2.5 mg/kg [2] [%] | inhibition at 5 mg/kg [2] [%] | Immobility in % (±S.D.) ([3]; 1.3 mg/kg) | Immobility in % (±S.D.) [3, 6] | Immobility in % (±S.D.) [3, 7] | Spontaneous DA cell firing rate in the VTA ([4]; cumulated dose 0.03 mg/kg i.v.) | Spontaneous DA cell firing rate in the VTA ([4]; cumulated dose 0.1 mg/kg i.v.) | other results
Cc1cc(N2CCOCC2)cc(C)c1NC(=O)CC1CCCC1 | 99 ± 4 % of baseline | 125 ± 9 % of baseline | 264 ± 39 % of baseline | 265 ± 17* % of baseline | 231 ± 22 % of baseline | 167 ± 25 % of baseline | 109 ± 11 % of baseline | 93 ± 15 % of baseline | 106 ± 5 % of baseline | 95 ± 6 % of baseline | None of the latter three compounds significantly affects the basal extracellular DA level | 5 | 65 | 97.5 (6.3) % | 97 (6.7) % | 81.0 (18)* % | 95.1 ± 1.9 (4) percentage of baseline firing rate | 88.2 ± 2.8 (5) percentage of baseline firing rate | Spontaneous DA cell firing rate in the VTA ([4]; cumulated dose 0.3 mg/kg i.v.): 74.6 ± 3.6 (4) percentage of baseline firing rate; Spontaneous DA cell firing rate in the VTA ([4]; cumulated dose 0.6 mg/kg i.v.): 64.1 ± 7.1 (2) percentage of baseline firing rate; Spontaneous DA cell firing rate in the VTA ([4]; cumulated dose 0.9 mg/kg i.v.): 55.8 ± 6.5 (2) percentage of baseline firing rate
Cc1cc(N2CCOCC2)cc(C)c1NC(=O)CC(C)(C)C | 91 ± 4 % of baseline | 112 ± 12 % of baseline | 227 ± 46 % of baseline | 262 ± 53* % of baseline | 195 ± 38* % of baseline | 172 ± 24 % of baseline | 166 ± 32 % of baseline | 129 ± 35 % of baseline | 100 ± 3 % of baseline | 108 ± 5 % of baseline | None of the latter three compounds significantly affects the basal extracellular DA level | 1 | 71 | 102 (4.6) % | 96.7 (7.5) % | 82.3 (20)* % | 89.8 ± 4.5 (5) percentage of baseline firing rate | 81.0 ± 4.0 (5) percentage of baseline firing rate | Spontaneous DA cell firing rate in the VTA ([4]; cumulated dose 0.25 mg/kg i.v.): 74.1 ± 6.3 (4) percentage of baseline firing rate; Spontaneous DA cell firing rate in the VTA ([4]; cumulated dose 0.5 mg/kg i.v.): 68.1 ± 6.0 (4) percentage of baseline firing rate; Spontaneous DA cell firing rate in the VTA ([4]; cumulated dose 1.0 mg/kg i.v.): 57.1 ± 7.9 (3) percentage of baseline firing rate
Cc1cc2c(s1)Nc1ccccc1N=C2N1CCN(C)CC1 [Olanzapine, reference compound] | – | – | – | – | – | – | – | – | – | – | – | – | – | 95 (11) % | – | – | – | – | ED50 [5]: 0.21 mg/kg; Immobility in % (±S.D.) ([3]; 0.31 mg/kg): 96 (14) %
CCOC(=O)Nc1ccc(NCc2c(C)cc(C)cc2C)cc1N [[2-Amino-4-(2,4,6-trimethyl-benzylamino)-phenyl]-carbamic acid ethyl ester] | – | – | – | – | – | – | – | – | – | – | – | – | – | – | – | – | – | – | Inhibition of baseline motility, ED50 (baseline motility): 4.3 mg/kg
